Results reported in ChEMBL document CHEMBL1159138, “Antibacterial evaluation of novel N-Arylimino-1,2,3-dithiazoles and N-arylcyanothioformamides” (1996).
Values after ≈ are worked out from the molar mass of the structure shown. Active and inactive are the calls of the source. No cut-off for these calls is given here.

How the values were obtained:
Enterococcus faecalis [1] = test: Antibacterial activity was determined against gram positive bacteria - Enterococcus faecalis (ATCC 29212).; assay type: functional
Enterococcus faecalis [2] = test: Minimum inhibitory concentration against Enterococcus faecalis (ATCC 29212) was determined using broth dilution method.; assay type: functional
Listeria monocytogenes [3] = test: Antibacterial activity was determined against gram positive bacteria - Listeria monocytogenes (CIP 82110T); assay type: functional
Staphylococcus aureus [4] = test: Minimum inhibitory concentration against Staphylococcus aureus(ATCC 9144) was determined using broth dilution method.; assay type: functional
Streptococcus pyogenes [5] = test: Minimum inhibitory concentration against Streptococcus pyogenes(ATCC 19165) was determined using broth dilution method.; assay type: functional
Staphylococcus aureus [6] = test: Antibacterial activity was determined against gram positive bacteria - Staphylococcus aureus(ATCC 9144); assay type: functional
Streptococcus pyogenes [7] = test: Antibacterial activity was determined against gram positive bacteria - Streptococcus pyogenes(ATCC 19165); assay type: functional
Listeria monocytogenes [8] = test: Minimum inhibitory concentration against Listeria monocytogenes (CIP 82110T) was determined using broth dilution method.; assay type: functional
Enterococcus faecalis [9] = test: Antibacterial activity was determined against gram positive bacteria - Enterococcus faecalis (ATCC 29212); Inactive; assay type: functional, organism-based
Listeria monocytogenes [10] = test: Antibacterial activity was determined against gram positive bacteria - Listeria monocytogenes (CIP 82110T); Inactive; assay type: functional, organism-based
Staphylococcus aureus [11] = test: Antibacterial activity was determined against gram positive bacteria - Staphylococcus aureus(ATCC 9144); Inactive; assay type: functional, organism-based
Streptococcus pyogenes [12] = test: Antibacterial activity was determined against gram positive bacteria - Streptococcus pyogenes(ATCC 19165); Inactive; assay type: functional, organism-based

SMILES | Zone diameter (Enterococcus faecalis [1]) [mm] | MIC (Enterococcus faecalis [2]) [mg/L] | Zone diameter (Listeria monocytogenes [3]) [mm] | MIC (Staphylococcus aureus [4]) [mg/L] | MIC (Streptococcus pyogenes [5]) [mg/L] | Zone diameter (Staphylococcus aureus [6]) [mm] | Zone diameter (Streptococcus pyogenes [7]) [mm] | MIC (Listeria monocytogenes [8]) [mg/L] | Zone diameter (Enterococcus faecalis [9]) | Zone diameter (Listeria monocytogenes [10]) | Zone diameter (Staphylococcus aureus [11]) | Zone diameter (Streptococcus pyogenes [12])
COc1ccc(/N=c2\ssnc2Cl)cc1OC | 13 | 32 (≈ 111 µM) | 12 | 32 (≈ 111 µM) | 32 (≈ 111 µM) | 13 | 16 | 32 (≈ 111 µM) | – | – | – | –
COC(=O)c1ccccc1/N=c1\ssnc1Cl | 16 | 32 (≈ 112 µM) | 17 | 32 (≈ 112 µM) | 32 (≈ 112 µM) | 18 | 18 | 32 (≈ 112 µM) | – | – | – | –
COc1cc(C#N)c(/N=C(/S)C#N)cc1OC | – | – | – | – | – | – | – | – | inactive | inactive | inactive | inactive
COc1ccc(/N=c2\ssnc2Cl)cc1 | 14 | 32 (≈ 124 µM) | 15 | 32 (≈ 124 µM) | 32 (≈ 124 µM) | 17 | 15 | 32 (≈ 124 µM) | – | – | – | –
COC(=O)c1cc(OC)c(OC)cc1/N=C(/S)C#N | – | – | – | – | – | – | – | – | inactive | inactive | inactive | inactive
COc1ccc(NC(=S)C#N)cc1 | – | – | – | – | – | – | – | – | inactive | inactive | inactive | inactive
COc1cc(NC(=S)C#N)cc(OC)c1OC | – | – | – | – | – | – | – | – | inactive | inactive | inactive | inactive
COc1ccccc1/N=c1\ssnc1Cl | 17 | 16 (≈ 61.8 µM) | 21 | 32 (≈ 124 µM) | 32 (≈ 124 µM) | 20 | 22 | 16 (≈ 61.8 µM) | – | – | – | –
N#CC(=S)Nc1ccc2c(c1)OCCO2 | – | – | – | – | – | – | – | – | inactive | inactive | inactive | inactive
N#Cc1ccccc1/N=c1\ssnc1Cl | 11 | 32 (≈ 126 µM) | 11 | 32 (≈ 126 µM) | 32 (≈ 126 µM) | 11 | 15 | 32 (≈ 126 µM) | – | – | – | –
COc1ccc(NC(=S)C#N)cc1OC | – | – | – | – | – | – | – | – | inactive | inactive | inactive | inactive
N#CC(=S)Nc1ccccc1 | – | – | – | – | – | – | – | – | inactive | inactive | inactive | inactive
COC(=O)c1cc(OC)c(OC)cc1/N=c1\ssnc1Cl | 14 | 32 (≈ 92.3 µM) | 17 | 32 (≈ 92.3 µM) | 32 (≈ 92.3 µM) | 17 | 14 | 32 (≈ 92.3 µM) | – | – | – | –
COc1cc(C#N)c(/N=c2\ssnc2Cl)cc1OC | 10 | 32 (≈ 102 µM) | 10 | 32 (≈ 102 µM) | 32 (≈ 102 µM) | 10 | 13 | 32 (≈ 102 µM) | – | – | – | –
Clc1nss/c1=N\c1ccccc1 | 19 | 16 (≈ 70 µM) | 27 | 16 (≈ 70 µM) | 32 (≈ 140 µM) | 29 | 26 | 16 (≈ 70 µM) | – | – | – | –
COC(=O)c1ccccc1/N=C(/S)C#N | – | – | – | – | – | – | – | – | inactive | inactive | inactive | inactive
COc1ccccc1/N=C(/S)C#N | – | – | – | – | – | – | – | – | inactive | inactive | inactive | inactive
N#CC(=S)Nc1ccccc1C#N | – | – | – | – | – | – | – | – | inactive | inactive | inactive | inactive
Clc1nss/c1=N\c1ccc2c(c1)OCCO2 | 10 | 32 (≈ 112 µM) | 10 | 32 (≈ 112 µM) | 32 (≈ 112 µM) | 12 | 11 | 32 (≈ 112 µM) | – | – | – | –
COc1cc(/N=c2\ssnc2Cl)cc(OC)c1OC | 10 | 32 (≈ 100 µM) | 17 | 32 (≈ 100 µM) | 32 (≈ 100 µM) | 13 | 16 | 32 (≈ 100 µM) | – | – | – | –
